Measurements: patent publication US11427553B2, “Dihydrooxadiazinones” (Bayer Aktiengesellschaft, priority 2017, dated 2022)

Test system: HeLa cells
Assay: Assay 1 cell proliferation measurement (CTG, 72 h), HeLa
Type: cell-based, human
Conditions: Homo sapiens, HeLa; Assay 1, 72 h, Cell Titer Glo; read-out: HeLa IC50 [nM] (Cervical cancer)
Method: Cell Proliferation Measurement
The antiproliferative activity of the compounds of the general formula (I) was examined in vitro in human cancer cells. For this purpose, the appropriate number of cells (Hela: 800; SK-MEL-3: 1000; A549: 800) were plated in 384-well plates with appropriate growth medium ((A549: DMEM/Ham's F12 (Biochrom; #FG 4815 with stabile Glutamine), FCS 10% final (Biochrom; #S 0415); Hela: DMEM/Ham's F12 (Biochrom; #FG 4815 with stabile Glutamine), FCS 10% final (Biochrom; #S 0415); SK-MEL-3: McCoy's 5A (Biochrom; #F 1015), FCS 10% final (Biochrom; #S 0415), L-Alanyl-L-Glutamine final: 2 mM, (Biochrom; #K 0302)) and incubated at 37° C. overnight. After 24 h, cells on one plate (0 h plate) were treated with 30 μl/cavity of CTG solution (Promega Cell Titer Glo (catalogue #G755B and G756B)) and incubated at room temperature for 10 min, and luminescence was measured by means of a VICTOR V (Perkin Elmer), in order to determine cell viability on commencement of treatment. The cells on the test plate were treated with the compounds of the general formula (I) as and incubated at 37° C. for 72 h. The compounds were added to the cells by means of an HP D300 digital dispenser in a 10-step 2.5-fold dilution series generally starting at a maximum final drug concentration of 100 nM. As control, the cells were treated with vehicle (DMSO at 0.3% final concentration). After 72 h, the cells were treated with 30 μl/cavity of CTG solution (Promega Cell Titer Glo (catalogue #G755B and G756B)) and incubated at room temperature for 10 min. and luminescence was measured by means of a VICTOR V (Perkin Elmer), in order to determine cell viability at the end of treatment. The percentage effect on cell growth and the IC50 derived therefrom were determined for each test substance using the values from the 0 h plate […] and the DMSO control […]. The IC50 values were calculated using a 4-parameter fit.

| SMILES | IC50 [nM] |
| --- | --- |
| O=C1NN=C(c2ccc(NCCCn3ccnc3)c(C(F)(F)F)c2)CO1 [Example 282, 5-[4-{[3-(1H-imidazol-1-yl)propyl]amino}-3-(trifluoromethyl)phenyl]-3,6-dihydro-2H-1,3,4-oxadiazin-2-one] | 13 |
| CN(CC(C)(C)O)c1ccc(C2=NNC(=O)OC2)cc1C(F)(F)F [Example 283, 5-{4-[(2-hydroxy-2-methylpropyl)(methyl)amino]-3-(trifluoromethyl)phenyl}-3,6-dihydro-2H-1,3,4-oxadiazin-2-one] | 13 |
| O=C1NN=C(c2ccc(N3CCC4(CCOC4)C3)c(C(F)(F)F)c2)CO1 (centres unmarked) [Example 284, 5-[4-(2-oxa-7-azaspiro[4.4]nonan-7-yl)-3-(trifluoromethyl)phenyl]-3,6-dihydro-2H-1,3,4-oxadiazin-2-one] | 14 |
| CCCC(CO)Nc1ccc(C2=NNC(=O)OC2)cc1C(F)(F)F (centres unmarked) [Example 285, 5-{4-[(1-hydroxypentan-2-yl)amino]-3-(trifluoromethyl)phenyl}-3,6-dihydro-2H-1,3,4-oxadiazin-2-one] | 14 |
| Cn1ccc(CNc2ccc(C3=NNC(=O)OC3)cc2C(F)(F)F)n1 [Example 286, 5-[4-{[(1-methyl-1H-pyrazol-3-yl)methyl]amino}-3-(trifluoromethyl)phenyl]-3,6-dihydro-2H-1,3,4-oxadiazin-2-one] | 23 |
| NC(=O)C1CN(c2ccc(C3=NNC(=O)OC3)cc2C(F)(F)F)C1 [Example 287, 1-[4-(2-oxo-3,6-dihydro-2H-1,3,4-oxadiazin-5-yl)-2-(trifluoromethyl)phenyl]azetidine-3-carboxamide] | 23 |
| O=C1NN=C(c2ccc(NCc3cccnc3)c(C(F)(F)F)c2)CO1 [Example 288, 5-[4-{[(pyridin-3-yl)methyl]amino}-3-(trifluoromethyl)phenyl]-3,6-dihydro-2H-1,3,4-oxadiazin-2-one] | 26 |
| CN(c1ccc(C2=NNC(=O)OC2)cc1C(F)(F)F)C1CCC(O)CC1 (centres unmarked) [Example 289, 5-{4-[(4-hydroxycyclohexyl)(methyl)amino]-3-(trifluoromethyl)phenyl}-3,6-dihydro-2H-1,3,4-oxadiazin-2-one] | 26 |
| O=C1CCC(CNc2ccc(C3=NNC(=O)OC3)cc2C(F)(F)F)N1 (centres unmarked) [Example 290, 5-[4-{[(5-oxopyrrolidin-2-yl)methyl]amino}-3-(trifluoromethyl)phenyl]-3,6-dihydro-2H-1,3,4-oxadiazin-2-one] | 32 |
| O=C1NN=C(c2ccc(NCCc3cnc[nH]3)c(C(F)(F)F)c2)CO1 [Example 291, 5-[4-{[2-(1H-imidazol-5-yl)ethyl]amino}-3-(trifluoromethyl)phenyl]-3,6-dihydro-2H-1,3,4-oxadiazin-2-one] | 35 |
| C[C@@H](O)[C@@H](CO)Nc1ccc(C2=NNC(=O)OC2)cc1C(F)(F)F [Example 292, 5-[4-{[(2R,3R)-1,3-dihydroxybutan-2-yl]amino}-3-(trifluoromethyl)phenyl]-3,6-dihydro-2H-1,3,4-oxadiazin-2-one] | 43 |
| CC(C)C[C@H](CO)Nc1ccc(C2=NNC(=O)OC2)cc1C(F)(F)F [Example 293, 5-[4-{[(2R)-1-hydroxy-4-methylpentan-2-yl]amino}-3-(trifluoromethyl)phenyl]-3,6-dihydro-2H-1,3,4-oxadiazin-2-one] | 43 |
| O=C1NN=C(c2ccc(NCC3CCOCC3)c(C(F)(F)F)c2)CO1 [Example 294, 5-[4-{[(oxan-4-yl)methyl]amino}-3-(trifluoromethyl)phenyl]-3,6-dihydro-2H-1,3,4-oxadiazin-2-one] | 45 |
| Cn1ccnc1CNc1ccc(C2=NNC(=O)OC2)cc1C(F)(F)F [Example 295, 5-[4-{[(1-methyl-1H-imidazol-2-yl)methyl]amino}-3-(trifluoromethyl)phenyl]-3,6-dihydro-2H-1,3,4-oxadiazin-2-one] | 47 |
| O=C1NN=C(c2ccc(NC(C3CC3)C3CC3)c(C(F)(F)F)c2)CO1 [Example 296, 5-{4-[(dicyclopropylmethyl)amino]-3-(trifluoromethyl)phenyl}-3,6-dihydro-2H-1,3,4-oxadiazin-2-one] | 59 |
| O=C1NN=C(c2ccc(NCCn3ccnn3)c(C(F)(F)F)c2)CO1 [Example 297, 5-[4-{[2-(1H-1,2,3-triazol-1-yl)ethyl]amino}-3-(trifluoromethyl)phenyl]-3,6-dihydro-2H-1,3,4-oxadiazin-2-one] | 59 |
| CC1(CNc2ccc(C3=NNC(=O)OC3)cc2C(F)(F)F)CCOCC1 [Example 298, 5-[4-{[(4-methyloxan-4-yl)methyl]amino}-3-(trifluoromethyl)phenyl]-3,6-dihydro-2H-1,3,4-oxadiazin-2-one] | 62 |
| O=C1NN=C(c2ccc(NCc3cncnc3)c(C(F)(F)F)c2)CO1 [Example 299, 5-[4-{[(pyrimidin-5-yl)methyl]amino}-3-(trifluoromethyl)phenyl]-3,6-dihydro-2H-1,3,4-oxadiazin-2-one] | 69 |
| Cn1cc(CNc2ccc(C3=NNC(=O)OC3)cc2C(F)(F)F)cn1 [Example 300, 5-[4-{[(1-methyl-1H-pyrazol-4-yl)methyl]amino}-3-(trifluoromethyl)phenyl]-3,6-dihydro-2H-1,3,4-oxadiazin-2-one] | 90 |
| CN1CCCC(Nc2ccc(C3=NNC(=O)OC3)cc2C(F)(F)F)CC1 (centres unmarked) [Example 301, 5-{4-[(1-methylazepan-4-yl)amino]-3-(trifluoromethyl)phenyl}-3,6-dihydro-2H-1,3,4-oxadiazin-2-one] | > 100 |
| CC1CN(C)CCN(c2ccc(C3=NNC(=O)OC3)cc2C(F)(F)F)C1 (centres unmarked) [Example 302, 5-[4-(4,6-dimethyl-1,4-diazepan-1-yl)-3-(trifluoromethyl)phenyl]-3,6-dihydro-2H-1,3,4-oxadiazin-2-one] | > 100 |
| CNC(=O)CCNc1ccc(C2=NNC(=O)OC2)cc1C(F)(F)F [Example 303, N-methyl-N^3-[4-(2-oxo-3,6-dihydro-2H-1,3,4-oxadiazin-5-yl)-2-(trifluoromethyl)phenyl]-beta-alaninamide] | > 100 |

Next, values leading:

| IC50 [nM] | SMILES |
| --- | --- |
| > 100 | CNC(=O)C1CCCN1c1ccc(C2=NNC(=O)OC2)cc1C(F)(F)F (centres unmarked) [Example 304, N-methyl-1-[4-(2-oxo-3,6-dihydro-2H-1,3,4-oxadiazin-5-yl)-2-(trifluoromethyl)phenyl]prolinamide] |
| > 100 | CN1CC(CNc2ccc(C3=NNC(=O)OC3)cc2C(F)(F)F)CC1=O (centres unmarked) [Example 305, 5-[4-{[(1-methyl-5-oxopyrrolidin-3-yl)methyl]amino}-3-(trifluoromethyl)phenyl]-3,6-dihydro-2H-1,3,4-oxadiazin-2-one] |
| > 100 | CCNC(=O)CNc1ccc(C2=NNC(=O)OC2)cc1C(F)(F)F [Example 306, ethyl-N^2-[4-(2-oxo-3,6-dihydro-2H-1,3,4-oxadiazin-5-yl)-2-(trifluoromethyl)phenyl]glycinamide] |
| > 100 | CN(C)C(=O)CNc1ccc(C2=NNC(=O)OC2)cc1C(F)(F)F [Example 307, N,N-dimethyl-N^2-[4-(2-oxo-3,6-dihydro-2H-1,3,4-oxadiazin-5-yl)-2-(trifluoromethyl)phenyl]glycinamide] |
| > 100 | O=C1NN=C(c2ccc(NCc3cccnn3)c(C(F)(F)F)c2)CO1 [Example 308, 5-[4-{[(pyridazin-3-yl)methyl]amino}-3-(trifluoromethyl)phenyl]-3,6-dihydro-2H-1,3,4-oxadiazin-2-one] |
| > 100 | CN1CCC(Nc2ccc(C3=NNC(=O)OC3)cc2C(F)(F)F)CC1 [Example 309, 5-{4-[(1-methylpiperidin-4-yl)amino]-3-(trifluoromethyl)phenyl}-3,6-dihydro-2H-1,3,4-oxadiazin-2-one] |
| > 100 | CN(C)C1CCN(c2ccc(C3=NNC(=O)OC3)cc2C(F)(F)F)C1 (centres unmarked) [Example 310, 5-{4-[3-(dimethylamino)pyrrolidin-1-yl]-3-(trifluoromethyl)phenyl}-3,6-dihydro-2H-1,3,4-oxadiazin-2-one] |
| > 100 | CC1CC(Nc2ccc(C3=NNC(=O)OC3)cc2C(F)(F)F)CCN1 (centres unmarked) [Example 311, 5-{4-[(2-methylpiperidin-4-yl)amino]-3-(trifluoromethyl)phenyl}-3,6-dihydro-2H-1,3,4-oxadiazin-2-one] |
| > 100 | O=C1NN=C(c2ccc(NCCCn3cnnc3)c(C(F)(F)F)c2)CO1 [Example 312, 5-[4-{[3-(4H-1,2,4-triazol-4-yl)propyl]amino}-3-(trifluoromethyl)phenyl]-3,6-dihydro-2H-1,3,4-oxadiazin-2-one] |
| > 100 | O=C1NN=C(c2ccc(NCCN3CCNC3=O)c(C(F)(F)F)c2)CO1 [Example 313, 5-[4-{[2-(2-oxoimidazolidin-1-yl)ethyl]amino}-3-(trifluoromethyl)phenyl]-3,6-dihydro-2H-1,3,4-oxadiazin-2-one] |
